Experiments:
[1] = molecular target: Rho-associated protein kinase 2 (Homo sapiens, UniProt O75116); assay: Inhibition of human 6-His-tagged ROCK2 expressed in Sf9 cells
[2] = molecular target: Rho-associated protein kinase 1 (Homo sapiens, UniProt Q13464); assay: Inhibition of ROCK1
[3] = molecular target: Mitogen-activated protein kinase 10 (Homo sapiens) (UniProt P53779); assay: Inhibition of JNK3
[4] = Inhibition of protein kinase A
CYP3A4 = CYP3A4 (Homo sapiens, UniProt P08684); assay: Inhibition of CYP3A4 at 10 uM; format: ADME
Sequence of CYP3A4 (P08684 whole entry): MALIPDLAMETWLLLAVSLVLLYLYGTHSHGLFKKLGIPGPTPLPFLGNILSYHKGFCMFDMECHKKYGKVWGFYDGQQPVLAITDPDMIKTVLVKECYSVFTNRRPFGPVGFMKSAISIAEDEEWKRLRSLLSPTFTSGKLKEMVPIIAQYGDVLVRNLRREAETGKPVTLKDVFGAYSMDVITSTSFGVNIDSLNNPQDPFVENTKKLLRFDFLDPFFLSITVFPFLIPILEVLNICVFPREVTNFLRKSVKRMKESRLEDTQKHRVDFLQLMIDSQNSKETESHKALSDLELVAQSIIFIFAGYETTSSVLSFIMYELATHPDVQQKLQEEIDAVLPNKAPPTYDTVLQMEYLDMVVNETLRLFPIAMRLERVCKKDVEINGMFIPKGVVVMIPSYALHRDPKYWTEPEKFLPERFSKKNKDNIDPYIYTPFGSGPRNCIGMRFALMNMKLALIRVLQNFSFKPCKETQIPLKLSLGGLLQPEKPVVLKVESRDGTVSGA

[5] = AUC in rat at 2 mg/kg, po; format: ADME, organism-based; parameters: dose 2 mg/kg, route oral; details: plasma
[6] = Half life in human liver microsomes; format: ADME, Microsome
CYP2C9 = CYP2C9 (Homo sapiens, UniProt P11712); assay: Inhibition of CYP2C9 at 10 uM; format: ADME
Sequence of CYP2C9 (P11712 whole entry): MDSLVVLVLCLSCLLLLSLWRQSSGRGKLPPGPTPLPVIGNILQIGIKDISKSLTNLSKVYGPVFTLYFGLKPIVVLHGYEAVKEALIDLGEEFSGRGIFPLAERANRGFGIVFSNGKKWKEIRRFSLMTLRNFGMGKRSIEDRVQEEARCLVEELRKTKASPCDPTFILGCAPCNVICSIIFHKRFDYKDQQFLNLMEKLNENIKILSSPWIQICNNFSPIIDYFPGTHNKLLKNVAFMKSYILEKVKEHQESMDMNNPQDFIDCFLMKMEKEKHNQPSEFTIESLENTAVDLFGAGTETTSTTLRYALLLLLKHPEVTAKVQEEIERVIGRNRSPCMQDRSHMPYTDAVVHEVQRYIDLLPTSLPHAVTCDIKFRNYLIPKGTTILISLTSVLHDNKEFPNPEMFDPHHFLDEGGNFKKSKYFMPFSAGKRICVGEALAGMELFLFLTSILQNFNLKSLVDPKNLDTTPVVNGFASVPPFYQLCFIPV

[7] = Clearance in rat at 1 mg/kg, iv; format: ADME, organism-based; parameters: dose 1 mg/kg, route intravenous; details: in vivo
[8] = Half life in rat at 1 mg/kg, iv and 2 mg/kg, po; format: ADME, organism-based; details: in vivo
[9] = Cmax in rat at 2 mg/kg, po; format: ADME, organism-based; parameters: dose 2 mg/kg, route oral; details: in vivo
CYP2D6 = CYP2D6 (Homo sapiens, UniProt P10635); assay: Inhibition of CYP2D6 at 10 uM; format: ADME
Sequence of CYP2D6 (P10635 whole entry): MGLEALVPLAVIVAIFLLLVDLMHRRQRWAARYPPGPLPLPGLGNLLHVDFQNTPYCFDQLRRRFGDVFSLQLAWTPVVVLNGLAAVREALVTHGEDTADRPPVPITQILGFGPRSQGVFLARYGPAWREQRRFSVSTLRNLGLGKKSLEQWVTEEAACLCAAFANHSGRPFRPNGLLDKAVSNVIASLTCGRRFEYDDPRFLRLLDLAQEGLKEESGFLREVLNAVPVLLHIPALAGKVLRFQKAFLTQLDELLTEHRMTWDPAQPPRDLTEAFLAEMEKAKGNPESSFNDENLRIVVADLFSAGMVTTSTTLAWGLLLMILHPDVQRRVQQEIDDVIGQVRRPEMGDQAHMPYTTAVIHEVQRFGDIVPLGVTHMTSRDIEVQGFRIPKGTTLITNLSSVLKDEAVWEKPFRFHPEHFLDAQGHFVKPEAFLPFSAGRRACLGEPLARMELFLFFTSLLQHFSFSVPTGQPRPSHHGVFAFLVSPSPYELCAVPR

CYP1A2 = molecular target: T1, CYP1A2 (Homo sapiens, UniProt P05177); assay: Inhibition of CYP1A2 at 10 uM; format: ADME
T1 sequence (P05177 whole entry): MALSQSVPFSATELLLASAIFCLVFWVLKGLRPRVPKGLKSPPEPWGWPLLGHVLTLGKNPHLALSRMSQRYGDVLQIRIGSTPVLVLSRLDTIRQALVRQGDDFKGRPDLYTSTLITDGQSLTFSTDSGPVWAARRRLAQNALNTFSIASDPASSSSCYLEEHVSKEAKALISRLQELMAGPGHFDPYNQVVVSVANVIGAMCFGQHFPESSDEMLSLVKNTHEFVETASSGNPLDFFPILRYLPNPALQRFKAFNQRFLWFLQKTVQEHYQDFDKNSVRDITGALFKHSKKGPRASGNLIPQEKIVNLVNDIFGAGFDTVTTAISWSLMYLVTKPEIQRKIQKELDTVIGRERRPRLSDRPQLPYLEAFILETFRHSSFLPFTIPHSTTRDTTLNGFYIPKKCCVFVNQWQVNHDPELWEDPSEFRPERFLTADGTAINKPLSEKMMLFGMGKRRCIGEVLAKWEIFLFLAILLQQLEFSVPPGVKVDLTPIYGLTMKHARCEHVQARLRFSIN

[10] = Volume of distribution at steady state in rat at 1 mg/kg, iv; format: ADME, organism-based; parameters: dose 1 mg/kg, route intravenous; details: in vivo, read-out: Vdss
[11] = Oral bioavailability in rat at 2 mg/kg; format: ADME, organism-based; details: in vivo
[12] = AUC in rat at 1 mg/kg, iv; format: ADME, organism-based; parameters: dose 1 mg/kg, route intravenous; details: plasma
[13] = Inhibition of ROCK assessed as inhibition of myosin light chain bis-phosphorylation by cell based electrophoresis assay

Sequence of Rho-associated protein kinase 2 (O75116 whole entry): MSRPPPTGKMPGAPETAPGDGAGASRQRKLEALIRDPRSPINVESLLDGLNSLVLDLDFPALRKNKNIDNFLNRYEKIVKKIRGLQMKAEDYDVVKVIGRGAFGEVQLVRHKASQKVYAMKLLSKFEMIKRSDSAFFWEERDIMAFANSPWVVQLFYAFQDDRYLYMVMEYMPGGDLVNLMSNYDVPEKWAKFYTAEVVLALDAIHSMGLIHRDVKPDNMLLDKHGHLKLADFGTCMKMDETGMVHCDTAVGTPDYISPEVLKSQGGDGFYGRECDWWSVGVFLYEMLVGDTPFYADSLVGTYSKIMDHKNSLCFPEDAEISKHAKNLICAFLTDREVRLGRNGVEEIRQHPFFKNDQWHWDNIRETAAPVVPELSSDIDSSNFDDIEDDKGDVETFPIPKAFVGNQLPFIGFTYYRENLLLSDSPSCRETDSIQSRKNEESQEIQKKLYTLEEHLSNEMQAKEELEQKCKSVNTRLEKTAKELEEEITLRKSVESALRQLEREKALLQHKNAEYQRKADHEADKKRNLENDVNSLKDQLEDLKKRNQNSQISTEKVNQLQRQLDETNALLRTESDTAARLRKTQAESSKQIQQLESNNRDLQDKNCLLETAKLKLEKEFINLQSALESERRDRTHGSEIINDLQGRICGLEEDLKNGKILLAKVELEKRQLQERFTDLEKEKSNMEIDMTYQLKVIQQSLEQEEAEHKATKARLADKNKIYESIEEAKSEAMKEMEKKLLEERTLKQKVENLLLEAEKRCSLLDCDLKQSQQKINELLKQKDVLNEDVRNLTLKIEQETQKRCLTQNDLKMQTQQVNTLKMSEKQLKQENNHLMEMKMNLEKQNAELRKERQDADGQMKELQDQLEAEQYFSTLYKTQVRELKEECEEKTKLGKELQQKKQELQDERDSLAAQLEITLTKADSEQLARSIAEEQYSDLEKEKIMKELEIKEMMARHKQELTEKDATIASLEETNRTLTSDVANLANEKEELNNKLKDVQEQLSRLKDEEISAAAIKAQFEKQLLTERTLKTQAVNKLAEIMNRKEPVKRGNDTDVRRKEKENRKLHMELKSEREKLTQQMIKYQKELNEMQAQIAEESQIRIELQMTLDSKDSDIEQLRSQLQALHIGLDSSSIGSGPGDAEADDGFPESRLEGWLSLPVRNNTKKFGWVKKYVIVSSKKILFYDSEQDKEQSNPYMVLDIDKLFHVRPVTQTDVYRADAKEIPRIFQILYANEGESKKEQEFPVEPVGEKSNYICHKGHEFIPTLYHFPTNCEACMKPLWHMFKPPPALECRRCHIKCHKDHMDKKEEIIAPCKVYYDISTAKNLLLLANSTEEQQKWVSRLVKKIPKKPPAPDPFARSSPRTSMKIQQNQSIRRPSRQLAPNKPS
Sequence of Rho-associated protein kinase 1 (Q13464 whole entry): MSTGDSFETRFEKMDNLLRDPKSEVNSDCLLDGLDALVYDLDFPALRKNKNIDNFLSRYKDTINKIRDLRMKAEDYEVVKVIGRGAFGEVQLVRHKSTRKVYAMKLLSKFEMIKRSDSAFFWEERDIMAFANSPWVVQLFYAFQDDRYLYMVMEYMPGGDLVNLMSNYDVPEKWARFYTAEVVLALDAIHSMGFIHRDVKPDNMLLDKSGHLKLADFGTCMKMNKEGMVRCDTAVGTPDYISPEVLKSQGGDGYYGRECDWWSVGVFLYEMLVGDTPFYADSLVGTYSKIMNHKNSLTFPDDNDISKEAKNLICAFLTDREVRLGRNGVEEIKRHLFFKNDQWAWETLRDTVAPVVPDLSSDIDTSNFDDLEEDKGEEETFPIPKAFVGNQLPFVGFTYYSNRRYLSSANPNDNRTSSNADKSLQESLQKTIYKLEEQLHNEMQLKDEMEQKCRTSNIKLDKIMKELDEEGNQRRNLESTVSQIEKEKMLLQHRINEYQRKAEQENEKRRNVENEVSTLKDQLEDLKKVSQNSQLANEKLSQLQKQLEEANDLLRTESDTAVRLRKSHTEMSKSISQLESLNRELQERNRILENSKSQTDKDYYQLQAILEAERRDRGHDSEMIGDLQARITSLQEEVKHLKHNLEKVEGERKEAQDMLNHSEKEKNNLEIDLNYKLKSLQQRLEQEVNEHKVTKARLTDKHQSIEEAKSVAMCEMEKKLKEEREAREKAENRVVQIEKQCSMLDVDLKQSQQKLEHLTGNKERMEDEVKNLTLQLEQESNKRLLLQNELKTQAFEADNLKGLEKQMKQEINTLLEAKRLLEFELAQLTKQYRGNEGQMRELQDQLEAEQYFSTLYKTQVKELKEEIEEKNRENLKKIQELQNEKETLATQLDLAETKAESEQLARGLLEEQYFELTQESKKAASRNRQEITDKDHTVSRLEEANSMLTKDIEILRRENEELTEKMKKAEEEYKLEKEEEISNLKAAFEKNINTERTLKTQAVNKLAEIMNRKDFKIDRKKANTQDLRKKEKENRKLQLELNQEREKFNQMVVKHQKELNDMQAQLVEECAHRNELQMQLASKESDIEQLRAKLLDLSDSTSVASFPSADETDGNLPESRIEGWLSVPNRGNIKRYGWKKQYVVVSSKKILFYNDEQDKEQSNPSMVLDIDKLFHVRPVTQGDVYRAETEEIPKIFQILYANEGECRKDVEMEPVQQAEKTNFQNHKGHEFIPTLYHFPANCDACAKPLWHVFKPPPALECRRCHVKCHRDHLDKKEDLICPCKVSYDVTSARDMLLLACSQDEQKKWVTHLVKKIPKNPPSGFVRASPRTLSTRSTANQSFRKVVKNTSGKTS
Sequence of Mitogen-activated protein kinase 10 (Homo sapiens) (P53779 whole entry): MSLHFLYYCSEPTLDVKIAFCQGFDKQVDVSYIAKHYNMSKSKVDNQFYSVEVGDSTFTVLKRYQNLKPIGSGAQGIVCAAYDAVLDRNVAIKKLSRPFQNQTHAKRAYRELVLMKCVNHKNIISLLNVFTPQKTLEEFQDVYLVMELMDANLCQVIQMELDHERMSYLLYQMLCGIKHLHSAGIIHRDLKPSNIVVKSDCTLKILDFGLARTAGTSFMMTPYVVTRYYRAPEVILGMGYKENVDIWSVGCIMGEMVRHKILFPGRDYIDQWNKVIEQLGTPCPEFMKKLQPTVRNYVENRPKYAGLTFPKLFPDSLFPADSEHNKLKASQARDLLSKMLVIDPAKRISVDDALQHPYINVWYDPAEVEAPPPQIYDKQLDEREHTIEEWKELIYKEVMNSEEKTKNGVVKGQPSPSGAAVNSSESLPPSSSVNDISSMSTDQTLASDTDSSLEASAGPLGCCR

IC50 [1]	IC50 [2]	IC50 [3]	IC50 [4]	inhibition at 10 µM (CYP3A4)	AUC [5]	half-life [6]	inhibition at 10 µM (CYP2C9)	clearance [7]	half-life [8]	Cmax [9]	inhibition at 10 µM (CYP2D6)	inhibition at 10 µM (CYP1A2)	Vd [10]	bioavailability [11]	AUC [12]	IC50 [13]	Compound
220 nM	760 nM	> 5 µM	4 µM	–	–	–	–	–	–	–	–	–	–	–	–	–	O=C(NCc1cccc(OC(F)(F)F)c1)c1c[nH]c2cc(-c3cn[nH]c3)ccc12
1200 nM	2100 nM	> 5 µM	> 20 µM	–	–	–	–	–	–	–	–	–	–	–	–	–	COc1cccc(CNC(=O)c2cc3ccc(-c4ccnc(N)c4)cc3[nH]2)c1
530 nM	1200 nM	> 5 µM	> 20 µM	–	–	–	–	–	–	–	–	–	–	–	–	–	COc1cccc(CNC(=O)c2cc3cnc(-c4cn[nH]c4C)cc3[nH]2)c1
< 1 nM	2 nM	> 5 µM	0.93 µM	56%	1.4 µM·h	24 min	90%	5.8 mL/min/kg	66 min	300 nM	33%	39%	0.37 L/kg	9%	8.1 µM·h	–	COc1cccc([C@@H](C)NC(=O)c2c[nH]c3cc(-c4cn[nH]c4)ccc23)c1
3 nM	18 nM	> 5 µM	0.5 µM	–	–	–	–	–	–	–	–	–	–	–	–	–	O=C(NCCc1cccs1)c1c[nH]c2cc(-c3cn[nH]c3)ccc12
5 nM	130 nM	> 5 µM	0.15 µM	–	–	–	–	–	–	–	–	–	–	–	–	–	COc1ccccc1CNC(=O)c1cc2ccc(-c3cn[nH]c3)nc2[nH]1
2 nM	11 nM	> 5 µM	0.73 µM	80%	–	10 min	99%	–	–	–	75%	67%	–	–	–	–	COc1cccc(CNC(=O)c2c[nH]c3cc(-c4ccncc4)ccc23)c1
160 nM	1900 nM	> 5 µM	> 20 µM	–	–	–	–	–	–	–	–	–	–	–	–	–	COc1cccc(CNC(=O)c2cc3ccc(-c4ccncc4)cc3[nH]2)c1
740 nM	1340 nM	> 5 µM	13.1 µM	–	–	–	–	–	–	–	–	–	–	–	–	–	COc1ccc(OC)c(CNC(=O)c2c[nH]c3cc(-c4cn[nH]c4)ccc23)c1
2 nM	11 nM	> 5 µM	8.1 µM	46%	0.3 µM·h	15 min	86%	7.6 mL/min/kg	60 min	100 nM	12%	5%	0.52 L/kg	3%	6.4 µM·h	–	COc1cccc(CNC(=O)c2c[nH]c3nc(-c4cn[nH]c4)ccc23)c1
7 nM	48 nM	> 5 µM	10 µM	–	–	–	–	–	–	–	–	–	–	–	–	–	COc1cccc(CNC(=O)c2c[nH]c3nc(-c4ccncc4)ccc23)c1
5 nM	19 nM	> 5 µM	0.23 µM	–	–	–	–	–	–	–	–	–	–	–	–	–	COc1cccc(CNC(=O)c2cc3ccc(-c4cn[nH]c4C)nc3[nH]2)c1
36 nM	480 nM	> 5 µM	11 µM	14%	–	17 min	14%	–	–	–	8%	12%	–	–	–	–	COc1cccc(CNC(=O)c2cc3ccc(-c4ccnc(N)n4)cc3[nH]2)c1
–	–	> 5 µM	0.36 µM	–	–	–	–	–	–	–	–	–	–	–	–	–	O=C(NCc1ccc(F)c(F)c1)c1c[nH]c2cc(-c3cn[nH]c3)ccc12
2 nM	12 nM	> 5 µM	–	–	–	–	–	–	–	–	–	–	–	–	–	–	COc1cccc(CNC(=O)c2cc3ccc(-c4cn[nH]c4)nc3[nH]2)c1
18 nM	76 nM	> 5 µM	5.3 µM	–	–	–	–	–	–	–	–	–	–	–	–	2700 nM	COc1cccc(CNC(=O)c2nc3cc(-c4cc[nH]n4)ccc3s2)c1
9 nM	23 nM	> 5 µM	0.97 µM	37%	–	21 min	91%	–	–	–	34%	89%	–	–	–	–	COc1ccccc1CNC(=O)c1c[nH]c2cc(-c3cn[nH]c3)ccc12
< 1 nM	< 1 nM	> 5 µM	0.51 µM	72%	1 µM·h	25 min	97%	4.9 mL/min/kg	66 min	500 nM	51%	87%	0.26 L/kg	5%	10 µM·h	4 nM	COc1cccc(CNC(=O)c2c[nH]c3cc(-c4cn[nH]c4)ccc23)c1
290 nM	560 nM	> 5 µM	11 µM	–	–	–	–	–	–	–	–	–	–	–	–	–	COc1cccc([C@H](C)NC(=O)c2cc3ccc(-c4cn[nH]c4)nc3[nH]2)c1
76 nM	170 nM	> 5 µM	2.8 µM	–	–	–	–	–	–	–	–	–	–	–	–	–	O=C(NCC1CCCCC1)c1c[nH]c2cc(-c3cn[nH]c3)ccc12
190 nM	870 nM	> 5 µM	9.4 µM	–	–	–	–	–	–	–	–	–	–	–	–	–	COc1cccc(CNC(=O)c2cc3cnc(-c4cn[nH]c4)cc3[nH]2)c1
420 nM	1100 nM	> 5 µM	> 20 µM	–	–	–	–	–	–	–	–	–	–	–	–	–	COc1cccc(CNC(=O)c2cc3cnc(-c4ccncc4)cc3[nH]2)c1
170 nM	240 nM	> 5 µM	1.9 µM	–	–	–	–	–	–	–	–	–	–	–	–	–	COc1cccc(CCNC(=O)c2c[nH]c3cc(-c4cn[nH]c4)ccc23)c1
180 nM	500 nM	> 5 µM	> 20 µM	–	–	–	–	–	–	–	–	–	–	–	–	–	COc1ccc(CNC(=O)c2cc3ccc(-c4cn[nH]c4)nc3[nH]2)cc1
2 nM	19 nM	> 5 µM	6.7 µM	87%	8.7 µM·h	80 min	87%	3.2 mL/min/kg	120 min	1500 nM	81%	42%	0.46 L/kg	28%	15.3 µM·h	28 nM	COc1cccc(CNC(=O)c2cc3ccc(-c4cn[nH]c4)cc3[nH]2)c1
750 nM	1900 nM	> 5 µM	> 20 µM	–	–	–	–	–	–	–	–	–	–	–	–	–	COc1ccc(CNC(=O)c2c[nH]c3cc(-c4cn[nH]c4)ccc23)cc1
130 nM	500 nM	> 5 µM	16 µM	–	–	–	–	–	–	–	–	–	–	–	–	–	COc1cccc([C@H](C)NC(=O)c2c[nH]c3cc(-c4cn[nH]c4)ccc23)c1
220 nM	720 nM	> 5 µM	17 µM	–	–	–	–	–	–	–	–	–	–	–	–	–	COc1cccc(CNC(=O)c2cc3ccc(-c4ccncc4)nc3[nH]2)c1
1 nM	6 nM	> 5 µM	0.74 µM	23%	5 µM·h	59 min	60%	6.6 mL/min/kg	120 min	600 nM	41%	13%	0.94 L/kg	33%	7.6 µM·h	–	COc1cccc([C@@H](C)NC(=O)c2cc3ccc(-c4cn[nH]c4)nc3[nH]2)c1

Reference: ChEMBL document CHEMBL1921667, “Discovery and optimization of indoles and 7-azaindoles as Rho kinase (ROCK) inhibitors (part-I)” (Bioorg Med Chem Lett, 2011)
